Experiment [1] has as its target EGFR (human) (UniProt P00533).
Experiment [2] has as its target EGFR (human) (UniProt P00533). Conditions: a431.
Experiment [3] concerns the target PIK3CA (human) (UniProt P42336). In words: Inhibition of PIK3CA Kinase Activity in HeLa Cells.
For experiment [4], the target named is EGFR (human) (UniProt P00533). Conditions: A431.
The target of experiment [5] is CDK2 (UniProt P24941). The experiment can be described thus: Enzyme Assay.
In experiment [6] the target is CDK2 (UniProt P24941). In words: Enzyme Assay. The source holds these as a separate data set.
The target in experiment [7] is PIK3CA (human), P42336 [Assessment of PIK3CA (Mutant) Kinase Activity in MCF-7.1 Cell Line]. In words: Assessment of PIK3CA (Mutant) Kinase Activity in MCF-7.1 Cell Line. Conditions: mcf-7.
Chain of PIK3CA (human), P42336 [Assessment of PIK3CA (Mutant) Kinase Activity in MCF-7.1 Cell Line] (P42336 whole entry, looked up, change not shown): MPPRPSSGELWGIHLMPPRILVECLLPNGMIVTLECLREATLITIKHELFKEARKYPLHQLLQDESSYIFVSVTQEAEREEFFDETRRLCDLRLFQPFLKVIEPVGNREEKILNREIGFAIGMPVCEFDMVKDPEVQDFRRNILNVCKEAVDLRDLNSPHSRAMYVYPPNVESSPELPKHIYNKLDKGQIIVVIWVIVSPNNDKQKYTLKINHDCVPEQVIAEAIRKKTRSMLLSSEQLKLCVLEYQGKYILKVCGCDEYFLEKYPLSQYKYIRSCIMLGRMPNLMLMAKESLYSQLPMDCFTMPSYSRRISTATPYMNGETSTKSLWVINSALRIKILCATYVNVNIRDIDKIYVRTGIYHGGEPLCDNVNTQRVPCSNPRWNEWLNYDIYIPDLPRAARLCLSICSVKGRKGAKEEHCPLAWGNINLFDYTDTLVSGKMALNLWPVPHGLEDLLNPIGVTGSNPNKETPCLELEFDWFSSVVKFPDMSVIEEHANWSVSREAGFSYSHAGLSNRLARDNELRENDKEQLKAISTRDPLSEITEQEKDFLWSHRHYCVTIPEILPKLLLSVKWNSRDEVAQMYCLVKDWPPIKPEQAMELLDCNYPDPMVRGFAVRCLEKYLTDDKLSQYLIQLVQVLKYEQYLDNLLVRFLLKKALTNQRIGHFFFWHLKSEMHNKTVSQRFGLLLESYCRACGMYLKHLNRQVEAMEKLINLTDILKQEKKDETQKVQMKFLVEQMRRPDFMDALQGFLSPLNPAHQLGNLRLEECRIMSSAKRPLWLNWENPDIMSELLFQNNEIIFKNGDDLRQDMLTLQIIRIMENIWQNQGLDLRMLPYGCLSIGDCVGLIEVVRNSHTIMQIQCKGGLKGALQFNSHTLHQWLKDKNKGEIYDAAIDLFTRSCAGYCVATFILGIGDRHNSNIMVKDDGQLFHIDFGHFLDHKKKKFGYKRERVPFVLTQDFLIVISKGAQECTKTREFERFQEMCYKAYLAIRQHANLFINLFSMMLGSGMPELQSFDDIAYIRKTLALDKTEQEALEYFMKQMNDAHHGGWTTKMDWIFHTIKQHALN
Experiment [8] has as its target EGFR (human) (UniProt P00533). As to conditions: kb.
Experiment [9] has as its target MAPK14 (UniProt Q16539). In words: CSBP binding - Inhibition of RBL-1 5 Lipoxygenase Enzyme Assay.
Experiment [10] concerns the target MAPK14 (UniProt Q16539). The experiment can be described thus: CSBP binding - Inhibition of Prostaglandin H Synthase Type-1 Enzyme Assay.
Experiment [11] has as its target EGFR (human) (UniProt P00533). As to conditions: hn5.
In experiment [12] the target is EGFR (human) (UniProt P00533). As to conditions: a431. The source holds these as a separate data set.
A further experiment deals with CDK2 (human) (UniProt P24941).
For experiment [13], the target named is EGFR (human) (UniProt P00533). The source holds these as a separate data set.
Experiment [14] deals with EGFR (human) (UniProt P00533). This is another data set of the same source.
In experiment [15] the target is EGFR (human) (UniProt P00533). As to conditions: hn5. The source holds these as a separate data set.
Experiment [16] addresses EGFR (human) (UniProt P00533). This is another data set of the same source.
For experiment [17], the target named is MAPK14 (UniProt Q16539). The experiment can be described thus: Inhibition of MAPK14 Kinase Activity (Binding Assay).
Chain of MAPK14 (Q16539 whole entry, looked up): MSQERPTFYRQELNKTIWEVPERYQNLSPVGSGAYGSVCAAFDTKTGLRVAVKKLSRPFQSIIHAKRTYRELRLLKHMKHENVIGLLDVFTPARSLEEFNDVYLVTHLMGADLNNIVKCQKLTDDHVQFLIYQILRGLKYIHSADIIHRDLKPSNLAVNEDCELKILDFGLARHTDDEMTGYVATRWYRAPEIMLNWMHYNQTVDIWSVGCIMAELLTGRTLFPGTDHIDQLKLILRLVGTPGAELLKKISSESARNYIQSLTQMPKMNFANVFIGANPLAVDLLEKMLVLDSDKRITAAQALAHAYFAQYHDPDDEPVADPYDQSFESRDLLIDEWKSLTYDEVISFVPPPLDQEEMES
Experiment [18] concerns the target MAPK14 (UniProt Q16539). In words: Inhibition of MAPK14 Kinase Activity (Spectrophometric Assay). As to conditions: concentration not given here.
Experiment [19] addresses EGFR (human) (UniProt P00533). This is another data set of the same source.
Experiment [20] addresses EGFR (human) (UniProt P00533). As to conditions: hn5. The source holds these as a separate data set.
In another experiment the target is PIK3CG (human) (UniProt P48736). The experiment can be described thus: Inhibition of PIK3CG Kinase Activity.
Chain of PIK3CG (human) (P48736 whole entry, looked up): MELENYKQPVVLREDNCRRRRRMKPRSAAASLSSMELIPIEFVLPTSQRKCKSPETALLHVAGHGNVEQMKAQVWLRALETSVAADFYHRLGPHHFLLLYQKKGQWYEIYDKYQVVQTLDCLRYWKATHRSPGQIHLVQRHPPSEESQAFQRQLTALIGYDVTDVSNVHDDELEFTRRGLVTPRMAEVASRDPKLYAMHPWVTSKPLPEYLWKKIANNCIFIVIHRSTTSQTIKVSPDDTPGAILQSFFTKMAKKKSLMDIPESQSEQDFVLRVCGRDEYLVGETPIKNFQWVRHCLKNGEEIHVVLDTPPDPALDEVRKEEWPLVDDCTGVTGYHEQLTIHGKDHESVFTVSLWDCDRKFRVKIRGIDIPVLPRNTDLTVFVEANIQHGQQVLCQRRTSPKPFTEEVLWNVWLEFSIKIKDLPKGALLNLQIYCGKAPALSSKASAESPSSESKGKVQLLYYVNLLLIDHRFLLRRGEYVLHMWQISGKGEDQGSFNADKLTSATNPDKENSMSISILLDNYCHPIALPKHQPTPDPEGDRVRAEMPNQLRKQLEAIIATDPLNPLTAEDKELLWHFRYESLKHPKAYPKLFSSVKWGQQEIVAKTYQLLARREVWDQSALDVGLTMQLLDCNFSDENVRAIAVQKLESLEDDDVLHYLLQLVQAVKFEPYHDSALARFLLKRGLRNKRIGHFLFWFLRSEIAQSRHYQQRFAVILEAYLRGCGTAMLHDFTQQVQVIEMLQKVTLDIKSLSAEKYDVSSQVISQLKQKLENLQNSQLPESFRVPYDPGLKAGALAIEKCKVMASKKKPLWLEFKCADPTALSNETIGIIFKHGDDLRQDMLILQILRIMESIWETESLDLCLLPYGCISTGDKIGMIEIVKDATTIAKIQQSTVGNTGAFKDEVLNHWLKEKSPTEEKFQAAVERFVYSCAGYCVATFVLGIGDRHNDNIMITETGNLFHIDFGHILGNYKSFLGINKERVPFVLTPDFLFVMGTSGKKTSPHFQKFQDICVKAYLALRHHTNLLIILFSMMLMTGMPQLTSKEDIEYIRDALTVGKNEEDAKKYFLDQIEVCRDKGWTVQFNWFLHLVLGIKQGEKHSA
Experiment [21] addresses PIK3CA (human) (UniProt P42336). The experiment can be described thus: Inhibition of PIK3CA Kinase Activity (FP Assay).
For experiment [22], the target named is MAPK14 (UniProt Q16539). The experiment can be described thus: Inhibition of MAPK14 Kinase Activity.
Experiment [23] concerns the target EGFR (UniProt P00533).
The next experiment addresses MAPK14 (human) (UniProt Q16539). The experiment can be described thus: Inhibition of MAPK14 Kinase Activity.
For experiment [24], the target named is EGFR (human) (UniProt P00533). As to conditions: a431. The source holds these as a separate data set.
For experiment [25], the target named is PIK3CA (human), P42336 [Wild-Type]. The experiment can be described thus: Assessment of Proliferation of NZB5 Cells Expressing Wild-Type PIK3CA Kinase.
Chain of PIK3CA (human), P42336 [Wild-Type] (P42336 whole entry, looked up): as the sequence (P42336 whole entry, looked up, change not shown) above
Experiment [26] has as its target EGFR (UniProt P00533). This is another data set of the same source.
In experiment [27] the target is EGFR (human) (UniProt P00533). This is another data set of the same source.
For experiment [28], the target named is EGFR (human) (UniProt P00533). As to conditions: a431. This is another data set of the same source.

Data on 26 molecules can be found in the Kinase Knowledgebase extract (Sharma et al. 2016).

The structures appear in SMILES notation.

One may read the IC50 as the point on the concentration scale where inhibition reaches its midpoint. Lower therefore signals higher potency. By GI50 is commonly meant the concentration giving 50% growth inhibition. The EC50 is the midpoint of the concentration-response curve. Low values mean greater potency, high ones weaker potency. As a reminder, the inhibition is the relative decrease from the control value, in per cent.

Chain of EGFR (P00533 whole entry, looked up): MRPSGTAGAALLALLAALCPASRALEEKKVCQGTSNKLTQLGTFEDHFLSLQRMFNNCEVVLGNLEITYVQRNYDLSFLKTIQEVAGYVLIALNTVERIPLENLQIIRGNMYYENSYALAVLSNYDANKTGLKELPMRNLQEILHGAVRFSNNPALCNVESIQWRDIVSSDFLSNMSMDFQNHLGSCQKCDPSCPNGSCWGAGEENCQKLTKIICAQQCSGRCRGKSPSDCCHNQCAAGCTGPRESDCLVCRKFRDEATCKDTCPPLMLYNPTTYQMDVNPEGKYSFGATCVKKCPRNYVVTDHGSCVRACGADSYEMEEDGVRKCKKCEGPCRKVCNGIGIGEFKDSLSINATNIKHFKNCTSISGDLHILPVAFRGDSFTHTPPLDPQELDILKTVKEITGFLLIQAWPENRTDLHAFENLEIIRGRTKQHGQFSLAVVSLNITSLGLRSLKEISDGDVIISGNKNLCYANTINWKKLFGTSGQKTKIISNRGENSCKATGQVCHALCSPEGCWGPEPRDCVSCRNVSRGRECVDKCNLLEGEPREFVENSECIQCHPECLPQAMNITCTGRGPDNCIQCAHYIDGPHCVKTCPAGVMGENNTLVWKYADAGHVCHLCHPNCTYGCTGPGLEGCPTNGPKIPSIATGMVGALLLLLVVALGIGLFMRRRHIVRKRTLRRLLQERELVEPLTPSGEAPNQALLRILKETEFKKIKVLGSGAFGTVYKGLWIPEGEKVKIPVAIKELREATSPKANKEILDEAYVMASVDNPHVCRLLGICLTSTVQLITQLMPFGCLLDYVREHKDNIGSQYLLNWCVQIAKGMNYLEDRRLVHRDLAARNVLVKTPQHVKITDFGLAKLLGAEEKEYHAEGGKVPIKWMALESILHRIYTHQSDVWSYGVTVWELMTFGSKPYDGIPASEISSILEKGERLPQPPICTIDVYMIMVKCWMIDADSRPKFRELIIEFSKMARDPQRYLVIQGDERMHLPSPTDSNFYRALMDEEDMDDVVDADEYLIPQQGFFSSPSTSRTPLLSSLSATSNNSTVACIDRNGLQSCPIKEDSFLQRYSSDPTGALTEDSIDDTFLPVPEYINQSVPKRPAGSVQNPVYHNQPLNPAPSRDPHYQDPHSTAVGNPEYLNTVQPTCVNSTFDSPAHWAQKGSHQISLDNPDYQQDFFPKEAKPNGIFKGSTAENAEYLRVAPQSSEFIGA
Chain of EGFR (human) (P00533 whole entry, looked up): as above
Chain of PIK3CA (human) (P42336 whole entry, looked up): as the sequence (P42336 whole entry, looked up, change not shown) above
Chain of MAPK14 (human) (Q16539 whole entry, looked up): as the sequence (Q16539 whole entry, looked up) above

`N#Cc1cnc2cc3c(cc2c1Nc1ccc(F)c(Cl)c1)N(C(=O)/C=C/CCl)CCO3` displayed an IC50 at EGFR (human) [1] of 1000 nM.

With `COc1ccc(-c2[nH]nc3c2C(=O)c2c(NC(=O)Nc4ccc(O)cc4)cccc2-3)cc1`, the GI50 in the experiment with EGFR (human) [2] is over 10000 nM.

Turning to `Nc1nc(N)c2c(n1)[nH]c1cccc(Sc3ccccc3)c12`, at PIK3CA (human) [3], the EC50 is 21600 nM. The molecule also yielded an IC50 against EGFR (human) [4] of 49200 nM.

`COc1ccc2cnc(Nc3ccc(N4CCCCC4)cc3)nc2c1C(C)C`: the IC50 at CDK2 [5] turned out to be 264 nM; at CDK2 [6], 4100 nM.

In turn, `Cc1nc(N)ncc1-c1nc(N2CCOCC2)c2sc(CN3CCN(S(C)(=O)=O)CC3)cc2n1` yielded an IC50 in experiment [7] of 290 nM.

Regarding `CNC(=O)CN1CCC(Oc2cc3c(Nc4ccc(F)c(Cl)c4F)ncnc3cc2OC)CC1`, the IC50 at EGFR (human) [8] worked out at 9 nM.

For `Fc1ccc(-c2nc[nH]c2-c2ccncc2)cc1`, the IC50 at MAPK14 [9] and on MAPK14 [10] was over 100000 nM throughout.

At EGFR (human) [11], `CS(=O)(=O)CCNCc1cc(-c2cc3ncnc(Nc4ccc(OCc5cccc(F)c5)c(Cl)c4)c3s2)cs1` returned an IC50 of 100 nM.

In turn, `C#Cc1cccc(Nc2c([N+](=O)[O-])cnc3cc(OCc4ccccc4)c(OC)cc23)c1` gave a 50% inhibitory concentration (IC50) on EGFR (human) [12] of 490 nM.

In turn, `O=C1Nc2ccc3ncsc3c2C1=NNc1ccc(S(=O)(=O)O)cc1` showed an IC50 at CDK2 (human) of 540 nM.

For `Cc1nc(N)ncc1-c1nc(N2CCOCC2)c2sc(C(C)(C)O)cc2n1`, in [7], the IC50 is 280 nM.

As to `COc1cc2c(cc1OC)Oc1ncnc(Oc3cccc(Br)c3)c1N(C)C2`, the IC50 against EGFR (human) [13] turned out to be 4600 nM.

`Cc1cc(N2CCOCC2)cc2[nH]c(-c3c(NC[C@@H](O)c4ccccc4Cl)cc[nH]c3=O)nc12` had an IC50 against EGFR (human) [14] of 1600 nM.

As to `CS(=O)(=O)CCNCc1nc(-c2ccc3ncnc(Nc4ccc(OCc5cccc(F)c5)c(Cl)c4)c3c2)cs1`, the IC50 is 80 nM on EGFR (human) [15] and under 100 nM on EGFR (human) [16].

`N#Cc1cnc2cc3c(cc2c1Nc1ccc(F)c(Cl)c1)N(C(=O)/C=C/CBr)CCO3` registered an IC50 against EGFR (human) [1] of 1000 nM.

`CC12CC(C(=O)O)CC(C)(C1)C(=O)N(Cc1cccc(-n3nc(C(C)(C)C)cc3NC(=O)Nc3ccc(Cl)cc3)c1)C2=O` (stereo not drawn) showed an IC50 at MAPK14 [17] of 10000 nM. The molecule further displayed an inhibition against MAPK14 [18] of 70%.

For the molecule `Cn1ccnc1S(=O)(=O)CCNCc1ccc(-c2ccc3ncnc(Nc4ccc(OCc5cccc(F)c5)c(Cl)c4)c3c2)o1`, the IC50 at EGFR (human) [19] stood at 17 nM; on EGFR (human) [20], 500 nM.

For `COC[C@H]1OC(=O)/C(=C/N(C)CCCN(C)C)C2=C(O)C(=O)C3=C([C@H](OC(C)=O)C[C@@]4(C)C3CC[C@@H]4O)[C@]21C` (stereo partly drawn), the IC50 against PIK3CG (human) was found to be 8 nM; against PIK3CA (human) [21], 6.4 nM.

Regarding `CCS(=O)(=O)c1ccc(OC)c(Nc2ncc(-c3cccc(-c4ccccn4)c3)o2)c1`, the IC50 is 1700 nM against CDK2 [6], over 10000 nM on MAPK14 [22] and over 10000 nM on EGFR [23].

Turning to `COc1cc2ncnc(Nc3cccc(Cl)c3F)c2cc1OC1CCN(CC(=O)NCCN2CCCC2)CC1`, the IC50 against EGFR (human) [8] was 17 nM.

On to `Nc1ccc(NC(=O)Nc2cccc3c2C(=O)c2c-3n[nH]c2-c2ccc(O)cc2)cc1`, for which the GI50 with EGFR (human) [2] was over 10000 nM.

Turning to `N#Cc1cnc2cnc(NCc3cccnc3)cc2c1NC1CCCCCC1`, the IC50 against MAPK14 (human) and at EGFR (human) [24] was over 40000 nM throughout.

For the molecule `Oc1cccc2c1nc(C(F)F)n2-c1nc(N2CCOCC2)cc(N2CCOCC2)n1`, the 50% inhibitory concentration (IC50) in [25] worked out at 100 nM.

On to `CCS(=O)(=O)c1ccc(OC)c(Nc2ncc(-c3cccc(-c4ccccc4F)c3)o2)c1`, for which the IC50 on MAPK14 [22] and on EGFR [23] was over 10000 nM each time.

On to `CN1CCC(Oc2cccc3ncnc(Nc4ccc(OCc5cscn5)c(Cl)c4)c23)CC1`, for which the IC50 against EGFR [26] was 280 nM.

Regarding `COCC=CC(=O)Nc1ccc2ncnc(Nc3cccc(Br)c3)c2c1`, the IC50 amounted to 1130 nM on EGFR (human) [27] and 8500 nM at EGFR (human) [28].
